Some results are limits rather than exact numbers.

The subject of experiment [1] is patient-derived primary prostate tumor epithelial cells. Particulars: other primary samples analyzed in the authors' laboratory; cited from earlier work.
For experiment [2], the target named is T1, Human ALDH1A3 (Homo sapiens, UniProt P47895).
T1 construct: made in house
T1 sequence (P47895 1-512): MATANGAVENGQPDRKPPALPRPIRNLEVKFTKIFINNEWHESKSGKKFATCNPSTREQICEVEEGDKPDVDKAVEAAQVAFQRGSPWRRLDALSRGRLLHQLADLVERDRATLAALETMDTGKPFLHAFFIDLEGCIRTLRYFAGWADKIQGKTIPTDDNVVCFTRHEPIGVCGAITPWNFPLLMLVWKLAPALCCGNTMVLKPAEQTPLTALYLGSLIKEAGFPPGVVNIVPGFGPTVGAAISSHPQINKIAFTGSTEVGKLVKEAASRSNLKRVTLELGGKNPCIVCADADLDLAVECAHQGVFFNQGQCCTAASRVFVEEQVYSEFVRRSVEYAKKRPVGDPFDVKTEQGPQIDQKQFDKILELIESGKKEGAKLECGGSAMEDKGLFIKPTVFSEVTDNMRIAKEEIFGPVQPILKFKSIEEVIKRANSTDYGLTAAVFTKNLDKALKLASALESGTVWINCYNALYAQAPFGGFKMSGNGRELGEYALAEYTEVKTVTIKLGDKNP
In words: Inhibition screening, single point at 10 μM, ALDH1A3. The class given is biochemical. Particulars: 10 μM compound; hexanal as substrate (Figure S1). The protocol:
Human ALDH1A1, ALDH1A3, and ALDH3A1 were cloned and recombinantly expressed from the pET-30 Xa/LIC vector. Protein purification was achieved by affinity chromatography on a nickel-charged chelating Sepharose Fast Flow 5-mL column (His Trap column, Cytiva), which specifically binds the protein due to its N-terminal (His)6 tag, using an ÄKTA FPLC system (Cytiva), as previously described.[55] Enzymes including the His tag were stored at −80 °C in 20 mM Tris/HCl and 0.5 M NaCl, pH 8.0, until use. […] Activity under standard conditions was measured fluorimetrically at 25 °C using a Cary Eclipse (Varian) fluorimeter to follow the purification procedure and to check the enzyme concentration before each kinetic experiment. The fluorescence of NADH was characterized at 460 nm with excitation at 340 nm, and 5 μM NAD(P)H was added as an internal standard to obtain the absolute reaction rates.[55] Standard activity was measured at saturating concentrations of substrate using 30 μM hexanal (ALDH1A1), 250 μM hexanal (ALDH1A3), or 250 μM 4-NBA (ALDH3A1). […]
All compounds tested were dissolved in DMSO and assayed at a final concentration of 1% (v/v) DMSO. […] Alternatively, the enzymatic activity was measured in a Varian Cary 400 UV–vis spectrophotometer, by monitoring the increase in the absorbance of NAD(P)H at 340 nm (ε = 6.22 mM^–1·cm^–1) or in a Cary Eclipse Varian fluorimeter, as described above. […]

Experiment [3] concerns the target T2, Human ALDH3A1 (Homo sapiens, UniProt P30838).
T2 construct: made in house
T2 sequence (P30838 1-453): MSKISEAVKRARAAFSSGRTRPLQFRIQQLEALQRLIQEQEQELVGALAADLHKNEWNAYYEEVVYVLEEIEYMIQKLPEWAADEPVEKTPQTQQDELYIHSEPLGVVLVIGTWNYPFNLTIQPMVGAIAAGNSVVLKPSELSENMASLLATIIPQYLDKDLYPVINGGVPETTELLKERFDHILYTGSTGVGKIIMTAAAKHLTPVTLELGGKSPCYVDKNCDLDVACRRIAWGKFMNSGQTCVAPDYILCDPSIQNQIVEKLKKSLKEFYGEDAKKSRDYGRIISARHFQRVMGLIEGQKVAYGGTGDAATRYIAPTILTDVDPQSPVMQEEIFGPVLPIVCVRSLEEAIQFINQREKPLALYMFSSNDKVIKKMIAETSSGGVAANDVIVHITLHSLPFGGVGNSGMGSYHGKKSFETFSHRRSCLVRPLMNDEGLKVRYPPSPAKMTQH
In words: ALDH3A1 inhibition, IC50, Ki and type of inhibition. It is filed as biochemical. Particulars: measured at a saturating substrate concentration (4-NBA); mean ± SE.

A further experiment has as its target T3, Human ALDH1A1 (Homo sapiens, UniProt P00352).
T3 construct: made in house
T3 sequence (P00352 1-501): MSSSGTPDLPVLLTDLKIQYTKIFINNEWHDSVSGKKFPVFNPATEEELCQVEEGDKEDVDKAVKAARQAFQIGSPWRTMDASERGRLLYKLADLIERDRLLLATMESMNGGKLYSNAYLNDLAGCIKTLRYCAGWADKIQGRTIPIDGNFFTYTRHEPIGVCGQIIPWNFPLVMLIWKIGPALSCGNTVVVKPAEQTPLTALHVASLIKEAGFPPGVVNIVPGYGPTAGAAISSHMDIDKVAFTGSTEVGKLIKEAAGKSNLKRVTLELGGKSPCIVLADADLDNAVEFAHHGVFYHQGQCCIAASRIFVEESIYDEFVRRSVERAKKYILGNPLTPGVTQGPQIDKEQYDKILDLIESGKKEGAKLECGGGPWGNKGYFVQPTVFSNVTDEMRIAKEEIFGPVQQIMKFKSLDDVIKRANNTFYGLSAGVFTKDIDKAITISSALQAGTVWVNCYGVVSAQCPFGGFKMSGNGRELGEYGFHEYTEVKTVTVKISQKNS
In words: DEAB analogues as substrates of ALDH1A1. The class given is biochemical. The conditions noted are these: 10 μM compound as substrate, relative to activity with 10 μM hexanal (Figure S2). On the procedure: (§1) Human ALDH1A1, ALDH1A3, and ALDH3A1 were cloned and recombinantly expressed from the pET-30 Xa/LIC vector. Protein purification was achieved by affinity chromatography on a nickel-charged chelating Sepharose Fast Flow 5-mL column (His Trap column, Cytiva), which specifically binds the protein due to its N-terminal (His)6 tag, using an ÄKTA FPLC system (Cytiva), as previously described.[55] Enzymes including the His tag were stored at −80 °C in 20 mM Tris/HCl and 0.5 M NaCl, pH 8.0, until use. Reaction buffers were as follows: ALDH1A1 was assayed in 50 mM HEPES, 0.5 mM EDTA, and 0.5 mM DTT, pH 8.0; ALDH1A3 was assayed in 50 mM HEPES, 30 mM MgCl2, and 5 mM DTT, pH 8.0; and ALDH3A1 was assayed in 50 mM Tris–HCl and 5 mM DTT, pH 8.0. Activity under standard conditions was measured fluorimetrically at 25 °C using a Cary Eclipse (Varian) fluorimeter to follow the purification procedure and to check the enzyme concentration before each kinetic experiment. The fluorescence of NADH was characterized at 460 nm with excitation at 340 nm, and 5 μM NAD(P)H was added as an internal standard to obtain the absolute reaction rates.[55] Standard activity was measured at saturating concentrations of substrate using 30 μM hexanal (ALDH1A1), 250 μM hexanal (ALDH1A3), or 250 μM 4-NBA (ALDH3A1). NAD^+ was 500 μM for ALDH1A1 and ALDH1A3, and NADP^+ was 1 mM for ALDH3A1.
According to their structure with a carbonyl group, compounds were tested for their substrate properties against ALDH1A1, ALDH1A3, and ALDH3A1. […] Results are expressed as the percentage of activity at 10 μM versus the activity at 10 μM of their standard substrate (hexanal or 4-NBA). Values are expressed as the mean ± SE.

For the next experiment, the system named is LNCaP. The experiment in a line: MTT chemosensitivity assay, LNCaP. The class given is cell-based, human. Particulars: Homo sapiens, LNCaP, 96 h exposure, ± SD, at least three independent experiments. The protocol: (§2) MTT (3-(4, 5-dimethyl-2-thiazolyl)-2, 5-diphenyl-2H-tetrazolium bromide) assay was used to determine cell viability.[64] Immortalized PCa cells (PC-3, Du-145, and LNCaP) were seeded in 96-well plates and allowed to adhere overnight at 37 °C, 5% CO2, and 100% humidity. […] After 96 h of exposure, 200 μL of MTT (Sigma) solution (0.5 mg/mL) was added to each well and incubated at 37 °C for 4 h. The formazan crystals were dissolved in DMSO (Sigma), and the absorbance was read using a microplate reader (Multiskan EX; Thermo Fisher Scientific) at 540 nm. Data analysis was performed using Microsoft Excel 2013 and GraphPad Prism software.
(In general: Tetrazolium dyes change colour on reduction, which living cells bring about.)

A further experiment deals with DU145. The experiment in a line: MTT chemosensitivity assay, DU145. It is filed as cell-based, human. The conditions noted are these: Homo sapiens, DU-145, 96 h exposure, ± SD, at least three independent experiments. The protocol: as §2
A further experiment deals with PC3. The experiment in a line: MTT chemosensitivity assay, PC3. It is filed as cell-based, human. The conditions noted are these: Homo sapiens, PC-3, 96 h exposure, ± SD, at least three independent experiments. On the procedure:
as §2

The target of experiment [4] is T1, Human ALDH1A3. In words: ALDH1A3 inhibition, IC50, Ki and type of inhibition. The class given is biochemical. Particulars: 6 μM hexanal as substrate; mean ± SE. On the procedure:
Human ALDH1A1, ALDH1A3, and ALDH3A1 were cloned and recombinantly expressed from the pET-30 Xa/LIC vector. Protein purification was achieved by affinity chromatography on a nickel-charged chelating Sepharose Fast Flow 5-mL column (His Trap column, Cytiva), which specifically binds the protein due to its N-terminal (His)6 tag, using an ÄKTA FPLC system (Cytiva), as previously described.[55] Enzymes including the His tag were stored at −80 °C in 20 mM Tris/HCl and 0.5 M NaCl, pH 8.0, until use. Reaction buffers were as follows: ALDH1A1 was assayed in 50 mM HEPES, 0.5 mM EDTA, and 0.5 mM DTT, pH 8.0; […] Activity under standard conditions was measured fluorimetrically at 25 °C using a Cary Eclipse (Varian) fluorimeter to follow the purification procedure and to check the enzyme concentration before each kinetic experiment. […] In order to determine the IC50 values, reaction rates were determined at various concentrations of inhibitor at a fixed concentration of substrate. […] Values are expressed as the mean ± SE. […] The data of enzymatic activities at different inhibitor concentrations were fitted to the Michaelis–Menten equation to determine the values of Km and Vmax. Next, results were fitted to the equations for competitive, given by [drawing 3]; noncompetitive, given by [drawing 4]; uncompetitive, given by [drawing 5]; and mixed, given by [drawing 6] .[56] The type of inhibition was selected based on the lowest error value. Parameters were expressed as the mean ± SE.

Experiment [5] relates to PC3, DU145 and LNCaP prostate cancer cell lines. The experiment in a line: MTT chemosensitivity assay, panel of three prostate cancer cell lines. It is filed as cell-based. Particulars: Homo sapiens, 96 h exposure, read-out: IC50 against three prostate cancer cell lines. On the procedure: as §2
Experiment [6] concerns the target T2, Human ALDH3A1. In words: ALDH3A1 inhibition, IC50, Ki and type of inhibition. The class given is biochemical. Particulars: 31 μM 4-NBA as substrate; mean ± SE. The protocol: as §1
In order to determine the IC50 values, reaction rates were determined at various concentrations of inhibitor at a fixed concentration of substrate. As substrates for ALDH1A1, ALDH1A3, and ALDH3A1, 5 μM hexanal, 6 μM hexanal, and 31 μM 4-NBA, respectively, were used. The IC50 values were calculated by nonlinear fitting of the obtained data to a sigmoidal plot using GraFit 5.0 (Erithacus software), with the following 4-parameter equation [drawing 2] , where y is the specific activity, x is the inhibitor concentration, background is the minimum y value, range is the fitted uninhibited value minus the background, and s is the slope factor. Values are expressed as the mean ± SE.
Activity assays to determine the type of inhibition and Ki value were performed using various substrate and inhibitor concentrations maintaining the same conditions as for the IC50 experiments and using GraFit 5.0 for data processing. The data of enzymatic activities at different inhibitor concentrations were fitted to the Michaelis–Menten equation to determine the values of Km and Vmax. Next, results were fitted to the equations for competitive, given by [drawing 3]; noncompetitive, given by [drawing 4]; uncompetitive, given by [drawing 5]; and mixed, given by [drawing 6] .[56] The type of inhibition was selected based on the lowest error value. Parameters were expressed as the mean ± SE.

In general, IC50 refers to the point on the concentration scale where inhibition reaches its midpoint. As for `CC(=O)O[C@@]12CO[C@@H]1C[C@H](O)[C@@]1(C)C(=O)[C@H](O)C3=C(C)[C@@H](OC(=O)[C@H](O)[C@@H](NC(=O)OC(C)(C)C)c4ccccc4)C[C@@](O)([C@@H](OC(=O)c4ccccc4)[C@H]21)C3(C)C` [docetaxel], the 50% inhibitory concentration (IC50) in experiment [1] is 0.001 µM.

Turning to `Cc1cc(C=O)ccc1N1CCOCC1` [Compound 27, 3-Methyl-4-morpholinobenzaldehyde], the “remaining ALDH1A3 activity” value on Human ALDH1A3 [2] was determined as 10%.

On to `CCCN(CCC)c1ccc(C=O)cc1Cl` [Compound 7, 3-Chloro-4-(dipropylamino)benzaldehyde], for which the IC50 is 13.7 ± 0.3 µM against Human ALDH3A1 [3]; 10 ± 3 µM in the experiment with LNCaP; 90 ± 27 µM in the experiment on DU145; 77 ± 17 µM with PC3; 0.55 ± 0.05 µM on Human ALDH1A3 [4]. The compound further showed an ALDH1A1 substrate activity at Human ALDH1A1 of 17.9%.

On to `Cc1cc(C=O)ccc1N1CCN(C)CC1` [Compound 24, 3-Methyl-4-(4-methylpiperazin-1-yl)benzaldehyde], for which, on Human ALDH1A3 [2], the “remaining ALDH1A3 activity” value amounted to 45%.

For `CCN(CC)c1ccc(C=O)cc1` [DEAB, 4-(Diethylamino)benzaldehyde, reference compound], the IC50 in experiment [5] was over 200 µM; in the experiment on LNCaP it was over 200 µM; at Human ALDH3A1 [6] it was 5.67 ± 0.66 µM; with DU145, over 200 µM; in the experiment with PC3, over 200 µM; at Human ALDH1A3 [4], 10.4 ± 1 µM.

These data come from paper PMC9007462 (Journal of Medicinal Chemistry, 2022).
